In paper PMC9085577, “Discovery of a Potent and Orally Active Dual GPBAR1/CysLT1R Modulator for the Treatment of Metabolic Fatty Liver Disease” (Frontiers in Pharmacology, 2022):

Tested on: liver transcriptome
Test: AmpliSeq liver transcriptome of HFD-F mice
Type: in vivo
Conditions: liver
Text: C57BL/6J male mice were fed a high fat diet (HFD) containing 59 KJ% fat plus 1% cholesterol, w/o sugar (ssniff ® EF R/M acc. D12330 mod. 22,7 ME/kg) and fructose (HFD-F) in drinking water (42 g/L), or normal chow diet for 61 days. Food intake was estimated as the difference of weight between the offered and the remnant amount of food at 3-days intervals. The food was provided as pressed pellets and the residual spillage was not considered. After 7 days, HFD-F mice were randomized to receive HFD-F alone or in combination with compound 2 (30 mg/kg/day) by gavage until the end of the experiment. Doses of each agent were chosen according to previously published data. Mice were housed under controlled temperature (22°C) and photoperiods (12:12-h light/dark cycle), allowed unrestricted access to standard mouse chow and tap water. The experimental protocol was approved by the Animal Care and Use Committee of the University of Perugia and by the Italian Minister of Health and Istituto Superiore di Sanità (Italy) and was in agreement with the European guidelines for use of experimental animals (permission n. 583/2017-PR). The general health of the animals was monitored daily by the Veterinarian in the animal facility. At the day of sacrifice, fed mice were deeply anesthetized with a mixture of tiletamine hypochloride and zolazepam hypochloride/xylazine at a dose of 50/5 mg/kg and sacrificed before 12 a.m.
High-quality RNA was extracted from mice livers, using the Direct-zol™ RNA MiniPrep w/Zymo-Spin™ IIC Columns (Zymo Research, Irvine, CA) according to the manufacturer’s instructions. RNA quality and quantity were assessed with the Qubit® RNA HS Assay Kit and a Qubit 3.0 fluorometer (Invitrogen, Carlsbad, CA) followed by agarose gel electrophoresis. Libraries were generated using the Ion AmpliSeq™ Transcriptome Mouse Gene Expression Core Panel and Chef-Ready Kit (Comprehensive evaluation of AmpliSeq transcriptome, a whole transcriptome RNA sequencing methodology) (Thermo Fisher Scientific, Waltham, MA). Briefly, 10 ng of RNA was reverse transcribed with SuperScript™ Vilo™ cDNA Synthesis Kit (Thermo Fisher Scientific, Waltham, MA) before library preparation on the Ion Chef™ instrument (Thermo Fisher Scientific, Waltham, MA). The resulting cDNA was amplified to prepare barcoded libraries using the Ion Code™ PCR Plate, and the Ion AmpliSeq™ Transcriptome Mouse Gene Expression Core Panel (Thermo Fisher Scientific, Waltham, MA), Chef-Ready Kit, according to the manufacturer’s instructions. Barcoded libraries were combined to a final concentration of 100 p.m., and used to prepare Template-Positive Ion Sphere™ (Thermo Fisher Scientific, Waltham, MA) Particles to load on Ion 540™ Chips, using the Ion 540™ Kit-Chef (Thermo Fisher Scientific, Waltham, MA). Sequencing was performed on an Ion S5™ Sequencer with Torrent Suite™ Software v6 (Thermo Fisher Scientific, Waltham, MA). The analyses were performed with a range of fold <−2 and >+2 and a p value <0.05, using Transcriptome Analysis Console Software (version 4.0.1), certified for AmpliSeq analysis (Thermo-Fisher). The transcriptomic data have been deposited as dataset on Mendeley data repository (reference number linking to the repository: Fiorucci, Stefano; Biagioli, Michele; Marchianò, Silvia; Di Giorgio, Cristina (2021), “Discovery of potent dual GPBAR1/CysLT1R modulator for the treatment of metabolic fatty liver disease,” Mendeley Data, V1, doi: 10.17632/6dnrk9fc72.1).

O=C(O)c1cccc(-c2ccc(OCc3ccc4ccccc4n3)cc2)c1 [Compound 2, 4'-(quinolin-2-ylmethoxy)-[1,1′-biphenyl]-3-carboxylic acid]
Gdf15 transcript Avg (log2) (HFD + compound 2): 3.91 log2
Glipr1 transcript Avg (log2) (HFD + compound 2): 0.71 log2
Glipr2 transcript Avg (log2) (HFD + compound 2): 1.26 log2
Gm16063 transcript Avg (log2) (HFD + compound 2): 1.79 log2
Gm30692 transcript Avg (log2) (HFD + compound 2): 0.5 log2
Gm31555 transcript Avg (log2) (HFD + compound 2): 1.31 log2
Gm31649 transcript Avg (log2) (HFD + compound 2): 2.75 log2
Gm36796 transcript Avg (log2) (HFD + compound 2): 1.53 log2
Gnat1 transcript Avg (log2) (HFD + compound 2): 3.01 log2
Gngt1 transcript Avg (log2) (HFD + compound 2): 1.67 log2
Gpnmb transcript Avg (log2) (HFD + compound 2): 0.3 log2
Hnf4aos transcript Avg (log2) (HFD + compound 2): 3.75 log2
Hnrnpa0 transcript Avg (log2) (HFD + compound 2): 2.3 log2
Hspa5 transcript Avg (log2) (HFD + compound 2): 8.51 log2
Igip transcript Avg (log2) (HFD + compound 2): 2.38 log2
Il1b transcript Avg (log2) (HFD + compound 2): 1.8 log2
Il1rn transcript Avg (log2) (HFD + compound 2): 1.01 log2
Insig2 transcript Avg (log2) (HFD + compound 2): 5.39 log2
Itgam transcript Avg (log2) (HFD + compound 2): 0.58 log2
Kif20a transcript Avg (log2) (HFD + compound 2): 1.39 log2
LOC108167447 transcript Avg (log2) (HFD + compound 2): 2.05 log2
LOC108168323 transcript Avg (log2) (HFD + compound 2): 1.86 log2
Lactb2 transcript Avg (log2) (HFD + compound 2): 3.85 log2
Ly6d transcript Avg (log2) (HFD + compound 2): 1.72 log2
Meg3 transcript Avg (log2) (HFD + compound 2): 4.04 log2
Mettl9 transcript Avg (log2) (HFD + compound 2): 4.9 log2
Mki67 transcript Avg (log2) (HFD + compound 2): 1.5 log2
Mogat1 transcript Avg (log2) (HFD + compound 2): 2.35 log2
Mthfd2 transcript Avg (log2) (HFD + compound 2): 1.97 log2
Mvd transcript Avg (log2) (HFD + compound 2): 1.98 log2
Nat8 transcript Avg (log2) (HFD + compound 2): 3.26 log2
Neat1 transcript Avg (log2) (HFD + compound 2): 7.09 log2
Npas2 transcript Avg (log2) (HFD + compound 2): 0.62 log2
Nr4a1 transcript Avg (log2) (HFD + compound 2): 3.27 log2
Nrep transcript Avg (log2) (HFD + compound 2): 6.14 log2
Nuak2 transcript Avg (log2) (HFD + compound 2): 5.66 log2
Pcbp1 transcript Avg (log2) (HFD + compound 2): 2.29 log2
Pcp4l1 transcript Avg (log2) (HFD + compound 2): 3.46 log2
Pdilt transcript Avg (log2) (HFD + compound 2): 4.25 log2
Pdpn transcript Avg (log2) (HFD + compound 2): 0.96 log2
Per3 transcript Avg (log2) (HFD + compound 2): 5.27 log2
Plau transcript Avg (log2) (HFD + compound 2): 1.27 log2
Plaur transcript Avg (log2) (HFD + compound 2): 1.66 log2
Pld6 transcript Avg (log2) (HFD + compound 2): 4.01 log2
Plekhg3 transcript Avg (log2) (HFD + compound 2): 6.24 log2
Plxnc1 transcript Avg (log2) (HFD + compound 2): 2.12 log2
Pnpla3 transcript Avg (log2) (HFD + compound 2): 4 log2
Podn transcript Avg (log2) (HFD + compound 2): 3.56 log2
Ppp1r3c transcript Avg (log2) (HFD + compound 2): 4.08 log2
Prox1 transcript Avg (log2) (HFD + compound 2): 7.62 log2
Psat1 transcript Avg (log2) (HFD + compound 2): 0.72 log2
Ptgs2 transcript Avg (log2) (HFD + compound 2): 0.21 log2
Raet1e transcript Avg (log2) (HFD + compound 2): 1.49 log2
Raet1d transcript Avg (log2) (HFD + compound 2): 2.83 log2
Ralbp1 transcript Avg (log2) (HFD + compound 2): 3.21 log2
Rhob transcript Avg (log2) (HFD + compound 2): 3.81 log2
Rrs1 transcript Avg (log2) (HFD + compound 2): 1.59 log2
Saa4 transcript Avg (log2) (HFD + compound 2): 9.44 log2
Sart3 transcript Avg (log2) (HFD + compound 2): 4.81 log2
Sbk1 transcript Avg (log2) (HFD + compound 2): 4.33 log2
Sec11c transcript Avg (log2) (HFD + compound 2): 3.53 log2
Senp1 transcript Avg (log2) (HFD + compound 2): 3.87 log2
Serpina7 transcript Avg (log2) (HFD + compound 2): 4.57 log2
Serpine1 transcript Avg (log2) (HFD + compound 2): 2.19 log2
Slc16a1 transcript Avg (log2) (HFD + compound 2): 2.98 log2
Slc17a8 transcript Avg (log2) (HFD + compound 2): 2.05 log2
Slc39a8 transcript Avg (log2) (HFD + compound 2): 3.52 log2
Slc40a1 transcript Avg (log2) (HFD + compound 2): 3.94 log2
Slc46a3 transcript Avg (log2) (HFD + compound 2): 4.69 log2
Spon2 transcript Avg (log2) (HFD + compound 2): 1.99 log2
Sqle transcript Avg (log2) (HFD-F + compound 2): 1.02 log2
Stfa3 transcript Avg (log2) (HFD-F + compound 2): 0 log2
Taok3 transcript Avg (log2) (HFD-F + compound 2): 6.27 log2
Tk1 transcript Avg (log2) (HFD-F + compound 2): 5.13 log2
Tmx1 transcript Avg (log2) (HFD-F + compound 2): 5.44 log2
Tnf transcript Avg (log2) (HFD-F + compound 2): 0.14 log2
Tnfrsf23 transcript Avg (log2) (HFD-F + compound 2): 0.63 log2
Tnnc1 transcript Avg (log2) (HFD-F + compound 2): 1.54 log2
Tsku transcript Avg (log2) (HFD-F + compound 2): 4.72 log2
Ubqln2 transcript Avg (log2) (HFD-F + compound 2): 2.22 log2
